Measured values as given in patent US7994202B2, “Bicyclic nitrogen-containing heterocyclic compounds” (Asahi Kasei Pharma Corporation, priority 2008, dated 2011).
pIC50: −log10 of the molar value.

The compounds below were run against T1, human EP1 receptor (Homo sapiens, UniProt P34995) (assay: Antagonist activity using cells expressing human EP1 receptor (SRE-luciferase reporter activity, PGE2 10 nM)). Conditions: HEK293 cells stably expressing human EP1 receptor, 6 hours, read-out: IC50 value in the measurement of antagonist activity using human EP1 receptor expressing cells.
T1 construct: expressed in transfected cells
T1 sequence (P34995 1-402): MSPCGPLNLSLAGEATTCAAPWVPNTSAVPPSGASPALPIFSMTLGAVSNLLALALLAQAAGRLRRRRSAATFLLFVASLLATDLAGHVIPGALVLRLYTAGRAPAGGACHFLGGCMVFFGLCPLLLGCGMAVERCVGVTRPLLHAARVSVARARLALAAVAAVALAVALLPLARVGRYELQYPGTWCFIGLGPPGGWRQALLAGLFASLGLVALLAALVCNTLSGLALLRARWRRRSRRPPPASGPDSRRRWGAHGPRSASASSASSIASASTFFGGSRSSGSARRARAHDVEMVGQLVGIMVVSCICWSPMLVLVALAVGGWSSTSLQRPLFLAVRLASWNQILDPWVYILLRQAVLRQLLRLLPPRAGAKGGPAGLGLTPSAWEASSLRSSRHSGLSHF
Assay type: cell-based
Excerpt: Measurement of an Antagonist Activity by Using Cells Expressing Human EP1 Receptor
As a result of searching Refseq Database for prostaglandin E receptor, genetic information of human EP1 (NM_000955) receptor was obtained. Based on this sequence information, human EP1 receptor gene was cloned by PCR using human cDNA as a template and by an ordinary method to give human EP1 receptor. Then, HEK293 in which the receptor is stably expressed was established, together with a reporter gene (SRE-Luciferase) in which serum responsible element (SRE) is added at the upstream region of firefly luciferase gene. The resulting cells were seeded to a 96 well plate (5×10^4 cells/well) and cultured for one day. To the plate, PGE2 (200 nM, final concentration 10 nM) and the test compound (in an amount of 1/20, 20× of the final concentration) were added to initiate the reaction. After allowing the reaction to proceed at 37° C. for 6 hours, the medium was aspirated off, added with a luminescent agent and the reporter activity was measured. […]
`O=C(O)c1csc(-n2nc(-c3ccccc3)c3ccc(I)cc32)n1` [Exp. 158] gave a pIC50 of at least 7.70. Work on `O=C(O)c1csc(-n2nc(-c3ccccc3)c3ccc(NCc4cccnc4)cc32)n1` [Exp. 149] yielded a pIC50 of 6.30 to 7.00. For `O=C(O)c1csc(-n2nc(-c3ccccc3)c3ccc(NC(=O)C4CC4)cc32)n1` [Exp. 135], the pIC50 was 6.30 to 7.00. With `C=Cc1ccc2c(-c3ccccc3)nn(-c3nc(C(=O)O)cs3)c2c1` [Exp. 162] the pIC50 was at least 7.70. `O=C(O)c1csc(-n2nc(-c3ccccc3)c3ccc(NC(=O)C45CC6CC(CC(C6)C4)C5)cc32)n1` [Exp. 133] showed a pIC50 of 6.30 to 7.00. In the case of `O=C(O)c1csc(-n2nc(-c3ccccc3)c3ccc(NCc4ccccc4F)cc32)n1` [Exp. 145], the pIC50 was 6.30 to 7.00. With `CC(C)C(C)Sc1ccc2c(-c3ccccc3)nn(-c3nc(C(=O)O)cs3)c2n1` (centres unmarked) [Exp. 166] the pIC50 was 6.30 to 7.00. `O=C(O)c1ccc(-n2nc(-c3ccccc3)c3ccccc32)s1` [Exp.94] showed a pIC50 of 6.30 to 7.00. In the case of `O=C(O)c1csc(-n2nc(-c3ccccc3)c3ccc(NCc4ccc(F)cc4)cc32)n1` [Exp. 147], the pIC50 was 6.30 to 7.00. `C/C=C\c1ccc2c(-c3ccccc3)nn(-c3nc(C(=O)O)cs3)c2c1` [Exp. 160] gave a pIC50 of at least 7.70. `O=C(O)c1ccc2c(-c3ccccc3)nn(-c3nc(C(=O)O)cs3)c2c1` [Exp.119, 2-(6-Carboxy-3-phenyl-1H-indazol-1-yl)thiazole-4-carboxylic acid] showed a pIC50 of at least 7.70. For `C/C=C/c1ccc2c(-c3ccccc3)nn(-c3nc(C(=O)O)cs3)c2c1` [Exp. 159], the pIC50 was at least 7.70. Compound `O=C(O)c1csc(-n2nc(-c3ccccc3)c3ccc(NCC4CCOC4)cc32)n1` (centres unmarked) [Exp. 150] has a pIC50 of 6.30 to 7.00. For `O=C(O)c1csc(-n2nc(-c3ccccc3)c3ncc(C(F)(F)F)cc32)n1` [Exp.164], the pIC50 was at least 7.70. With `O=C(O)c1csc(-n2nc(-c3ccccc3)c3ccc(Sc4ccc(OC(F)(F)F)cc4)nc32)n1` [Exp.177] the pIC50 was 6.30 to 7.00. `O=C(O)c1csc(-n2nc(-c3ccccc3)c3ccc(Sc4cccc(O)c4)nc32)n1` [Exp. 178] was tested, and the pIC50 was 7.00 to 7.70. In the case of `O=C(O)c1csc(-n2nc(-c3ccccc3)c3ccc(Sc4ccccc4F)nc32)n1` [Exp. 175], the pIC50 was 7.00 to 7.70. `O=C(O)c1csc(-n2nc(-c3ccccc3)c3ccc(Br)cc32)n1` [Exp. 157] was tested, and the pIC50 was at least 7.70. Compound `O=C(O)c1csc(Cn2nc(-c3ccccc3)c3ccccc32)n1` [Exp.7, 2-{(3-phenyl-1H-indazol-1-yl)methyl}thiazole-4-carboxylic acid] has a pIC50 of 7.00 to 7.70. `O=C(O)c1csc(-n2nc(-c3ccccc3)c3ccc(NCc4ccccn4)cc32)n1` [Exp. 148] showed a pIC50 of 7.00 to 7.70. `CCC(C)CNc1ccc2c(-c3ccccc3)nn(-c3nc(C(=O)O)cs3)c2c1` (centres unmarked) [Exp. 151] showed a pIC50 of 6.30 to 7.00. Compound `CCC(C)S(=O)(=O)Nc1ccc2c(-c3ccccc3)nn(-c3nc(C(=O)O)cs3)c2c1` (centres unmarked) [Exp. 142] has a pIC50 of 6.30 to 7.00. In the case of `CC(=O)Nc1ccc2c(-c3ccccc3)nn(-c3nc(C(=O)O)cs3)c2c1` [Exp.122], the pIC50 was 6.30 to 7.00. `O=C(O)c1csc(-n2nc(-c3cccs3)c3ccccc32)n1` [Exp. 51] gave a pIC50 of 7.00 to 7.70. Work on `O=C(O)c1csc(-n2nc(-c3ccccc3)c3ccc(Cl)cc32)n1` [Exp. 156] yielded a pIC50 of at least 7.70. `Cn1cncc1C(=O)Nc1ccc2c(-c3ccccc3)nn(-c3nc(C(=O)O)cs3)c2c1` [Exp. 130] showed a pIC50 of 6.30 to 7.00. For `O=C(O)c1csc(-n2nc(-c3ccccc3)c3ccc(NCc4cccc(F)c4)cc32)n1` [Exp. 146], the pIC50 was 6.30 to 7.00. Compound `O=C(O)c1csc(-n2nc(-c3ccccc3)c3ccc(N4CCC4)nc32)n1` [Exp. 167] has a pIC50 of 7.00 to 7.70. For `CN(C)c1ccc2c(-c3ccccc3)nn(-c3nc(C(=O)O)cs3)c2c1` [Exp.154], the pIC50 was at least 7.70. `N#Cc1ccc2c(-c3ccccc3)nn(-c3nc(C(=O)O)cs3)c2c1` [Exp. 118, 2-(6-Cyano-3-phenyl-1H-indazol-1-yl)thiazole-4-carboxylic acid] was tested, and the pIC50 was 7.00 to 7.70. For `O=C(O)c1csc(-n2nc(-c3ccccc3)c3ccc(NCCc4ccccc4)cc32)n1` [Exp. 152], the pIC50 was 7.00 to 7.70. Work on `O=C(O)c1csc(-n2nc(-c3ccccc3)c3ccc(NC(=O)C4CCCC4)cc32)n1` [Exp. 131] yielded a pIC50 of 6.30 to 7.00.
